Data as given in US6929935B2, “Gluconobacter oxydans 2-ketoreductase enzyme and applications thereof” (Bristol-Myers Squibb Company, priority 2001, dated 2005).

System: G. oxydans 2-ketoreductase
Assay: Reduction of alkylketones with extract of E. coli expressing recombinant 2-ketoreductase, analysed by gas chromatography
Assay type: biochemical, Gluconobacter oxydans
Settings: NAD+/formate/formate dehydrogenase, 28° C., 16 hr; for % Conversion: 2 mg 2-ketone, 0.5 ml E. coli pBMS2000-KR extract, ketone to 2-alcohol
Protocol: Analysis of enantiomeric alcohols by gas chromatography: Samples were extracted in ethyl acetate and dried over anhydrous magnesium sulfate. Samples were then applied onto a Astec Chiraldex G-TA, gamma cyclodextrin column (20 m×0.25 mm×0.125 μm thickness; Astec, Whippany, N.J.) equipped with a guard column (Hewlett-Packard Ultra II, 5% phenyl methyl silicone, 5 m×0.32 mm×0.17 μm thickness; Agilent Technologies, Palo Alto, Calif.). The temperature of the injector was set at 150° C. and the detector of the chromatograph (Hewlett-Packard 5890) was set at 200° C. Detection was carried out with a flame ionization detector (Agilent Technologies). The separation was carried out by a gradient under the following conditions: 28° C. for 15 minutes, 5° C./min to 50° C. and hold 5 minutes. The helium flow rate was maintained at 22 cm/min. Under these conditions, the retention times for S-2-pentanol, R-2-pentanol, and 2-pentanone were 10.85, 11.67 and 17.84 minutes respectively.
The reaction contained 0.18 mg NAD+, 30 mg sodium formate, 0.3 units formate dehydrogenase (Sigma, St. Louis, Mo.), 2 mg 2-pentanone, and 0.5 ml of extract from an E. coli (BL21(DE3)) culture containing the pBMS2000-KR plasmid and expressing the ketoreductase. Alternatively, P. pastoris formate dehydrogenase (see S. Goldberg et al.: U.S. Provisional Patent Application Ser. No. 60/341,934 filed Dec. 19, 2001; U.S. Provisional Application Ser. No. 60/375,530 filed Apr. 25, 2002; and U.S. patent application Ser. No. 10/320,300; the contents of which are hereby incorporated by reference in their entirety) can be substituted for the commercial formate dehydrogenase. Cell extracts were obtained as follows: 2 g recombinant cells was suspended in 10 ml Buffer A (50 mM Tris-HCl, pH 7.5, 1 mM CaCl2, and 1 mM MgCl2). The resuspended cells were sonicated for 2 min (20 sec pulse “on” and 30 sec pulse “off”) using Model 550 Sonic Dismembrator (Misonix Inc., Farmingdale, N.Y.). The resulting mixture was centrifuged for 15 min at 8000 rpm at 4° C. The supernatant was removed and used for reduction reactions. The reactions were carried out in a culture tube at 28° C. with shaking at 200 rpm. After 16 hr, samples were quenched with 2 ml of ethyl acetate and analyzed by gas chromatography (described earlier).
The reactions contained 0.18 mg NAD+, 30 mg sodium formate, 0.3 units formate dehydrogenase (purchased from Sigma), 2 mg 2-ketones, and 0.5 ml of extract from the E. coli culture containing the pBMS2000-KR plasmid and expressing the ketoreductase (described above). The reactions were carried out in a culture tube at 28° C. on a shaker at 200 rpm. The end of 16 hr, samples were quenched with 2 ml of ethyl acetate and analyzed by gas chromatography (described earlier).

| Structure (SMILES) | % Conversion [%] | reduction of the substrate to 2-pentanol using recombinant enzyme (2 mg substrate, 0.5 ml E. coli BL21(DE3) pBMS2000-KR extract) |
| --- | --- | --- |
| CCCCCCCCC(C)=O [2-Decanone] | >98 | – |
| CCCCCC(C)=O [2-Heptanone] | >98 | – |
| CCCCCCC(C)=O [2-Octanone] | >98 | – |
| CCCC(C)=O [2-pentanone] | – | complete reduction |
